The numbers were not newly measured in publication PMC140124 (Biological Procedures Online, 1998), which cites them from elsewhere.

Like-named read-outs stand apart in the source and are kept apart here.

Take `O=S1(=O)OC(c2ccc(O)cc2)(c2ccc(O)cc2)c2ccccc21` [phenol red]: the “change of absorption clearance” value (presence of peptidase inhibitors, ref [1]) is reported as “did not increase”.
Consider L-tyrosyl-D-arginine [D-KTP], for which, for the setting “rat everted jejunum, peptidase-resistant isomer, ref [2]”, the “absorption clearance (the overall transport clearance)” value is 0.516 µL/min/cm.
Turning to L-tyrosyl-L-arginine [KTP], the “appearance on the serosal side” value (absence of peptidase inhibitors, ref [2]) is given as “did not appear on the serosal side”; the “appearance on the serosal side” value (presence of peptidase inhibitors such as o-phenanthrolin, tryptophan hydroxamate and bestatin, ref [2]) is listed as “appeared on the serosal side”.
